Publication PMC11206691, “N-Hydroxypiridinedione: A Privileged Heterocycle for Targeting the HBV RNase H” (Molecules, 2024)
Read-outs that look alike come from different tables or passages of the source.

Legend:
[1] = Solubility limit assay (turbidity, DMEM-F12 + 10% FBS); assay type: physicochemical; conditions: pH 7.4, DMEM-F12 with 10% FBS, 1% DMSO, upper limit 200 µM
Procedure: Compound solubility limits were tested in DMEM-F12 without phenol red (Gibco, Grand Island, NY, USA) supplemented with 10% FBS (pH 7.2–7.4) to mimic cell culture experiments, as we have performed previously. Compounds were serially diluted in buffer at pH 7.4 in 384-well, optically clear plates (upper limit 200 µM, DMSO 1%) and read on a plate reader at 620 nm. Compound concentration (µM) was plotted against optical density (OD) and a solubility limit was determined by identifying an inflection point where there was a significant increase in optical density due to increasing turbidity; the concentration of the compound at the inflection point was defined as the solubility limit. Two or more replicate assays were performed on different days for each compound.

[2] = Parallel artificial membrane permeability assay; assay type: in vitro ADME; parameters: key to Papp Interpretation: High rate of apparent passive permeability (>1 × 10^−6 cm/s); Low rate of apparent passive permeability (<1 × 10^−6 cm/s); INS: Compound was insoluble in 100% DMSO; conditions: for Papp Interpretation: pH 7.4; for Papp: pH 7.4, 200 μM; for Papp / Papp at 2 h, 200 µM: 2 h, room temperature; for Papp interpretation (high/low permeability category) at 2 h, 200 µM / Papp at 2 h, 200 µM: PAMPA; for Papp interpretation (high/low permeability category) at 2 h, 200 µM: pH 7.4, pH 7.4; for Papp at 2 h, 200 µM: pH 7.4, pH 7.4, 200 μM
Procedure: Apparent passive permeability (Papp) was assessed at pH 7.4 using a 96-well donor/acceptor cassette (Sigma Aldrich, Burlington, MA, USA), which mimics the apical and basolateral sides of the small intestine epithelium, as we have described previously. Briefly, an artificial membrane composed of 1% w/v lethicin/dodecane was added to the poly (vinylidene fluoride) (PVDF) membrane filter. Once dry, compounds (200 μM) were diluted in buffer at pH 7.4 and added to the donor side of the membrane, and the same pH buffer was added to the acceptor side. The cassette was assembled and incubated at room temperature with shaking at 250 rpm for 2 h, after which 100 μL of the acceptor well was retrieved and the experimental compound absorbance was read on a plate reader between 200 and 600 nm. Compound Papps (cm/s) values were determined by normalizing to the compound absorbance at equilibrium, incubation time, and membrane porosity Two or more replicate assays were conducted on different days.

HBV replication = assay: qPCR HBV replication inhibition assay in HepDES19 cells; assay type: cell-based, Hepatitis B virus (HBV) genotype D; conditions: 72 h, (+) DNA qPCR
Procedure: (§1) HepDES19 cells were incubated on collagen-coated plates at 37 °C with 5% CO2 and saturating humidity in Dulbecco’s modified Eagle’s medium (DMEM/F12) (Cytiva Life Sciences, Marlborough, MA, USA) supplemented with 10% fetal bovine serum (FBS), penicillin (100 IU/mL), and streptomycin (100 µg/mL). HepDES19 cells are HepG2 cells that carry a stably transfected HBV genotype D genome under the control of a tetracycline repressible promoter. Cells were maintained in the presence of 1 µg/mL tetracycline to repress the expression of the stably integrated HBV genome, and HBV replication was induced by the withdrawal of tetracycline from the culture medium.
HBV replication inhibition was measured in HepDES19 cells induced to replicate HBV by the removal of tetracycline using a strand-preferential quantitative PCR assay as previously described. Cells were seeded at 4 × 10^4 cells/well in 96-well plates for 48 h. Serially diluted compound was then added to cells at a final concentration of 1% DMSO for 72 h, after which the cells were lysed and qPCR was performed as described in Li et al.. EC50 values were calculated from the (+) DNA data with GraphPad Prism using the four-parameter log (inhibitor) versus response algorithm with the bottom value set to zero. Three or more replicate assays were performed on different days.

MTS cytotoxicity assay = assay type: cell-based; conditions: human, HepDES19 cells
Procedure: as §1
Cell viability was assessed using the CellTiter 96^TM Aqueous Non-Radioactive Cell Proliferation assay (MTS) (Promega, Madison, WI, USA) as described previously. HepDES19 cells were seeded at 1 × 10^4 cells per well in 96-well, and compound was added after 48 h. Cells incubated with serially diluted compound (1% DMSO) for 72 h. Bac absorbance values were subtracted, and data were converted to percent cell viability. The cytotoxic concentration 50% (CC50) values were calculated with GraphPad Prism by using the four-parameter variable response log (inhibitor) versus response algorithm with the bottom value set to zero. Three or more replicate assays were performed on different days.

[3] = Hepatitis B virus, read-out: EC50
[4] = DMEM-F12 without phenol red with 10% FBS, plasma or biological fluid, kinetic from dmso stock

Compound | solubility [1] [µM] | Papp Interpretation [2] | Papp [2] | EC50 (HBV replication; [3]) [µM] | melting point | solubility [1, 4] [µM] | Papp interpretation (high/low permeability category) at 2 h, 200 µM [2] [×10⁻⁶ cm/s] | Papp at 2 h, 200 µM [2] [×10⁻⁶ cm/s] | CC50 at 72 h (MTS cytotoxicity assay) [µM] | EC50 (HBV replication) | Solubility Limit [1]
2,6-Diamino-4-(3-methoxyphenoxy)-1,6-dihydropyrimidine 1-oxide [Compound 55] | > 200 | H (High rate of apparent passive permeability (>1 × 10^−6 cm/s)) | 6.17 ×10⁻⁶ cm/s |  |  |  |  |  |  |  | 
CSc1ccc(CON=C(C)c2c(C)cc(=O)n(O)c2O)cc1 [Compound 33, 1,6-Dihydroxy-4-methyl-5-(1-(((4(methylthio)benzyl)oxy)imino)ethyl)pyridin-2(1H)-one] |  |  |  | 1.4 ± 0.7 | 110 to 115 °C (dec.) | > 200 | > 1 | 4.35 | 100 |  | 
COC(=O)c1ccc(C(C)ON=C(C)c2c(C)cc(=O)n(O)c2O)cc1 (centres unmarked) [Compound 34, Methyl-4-(1-(((1-(1,2-dihydroxy-4-methyl-6-oxo-1,6-dihydropyridin-3-yl)ethylidene)amino)oxy)ethyl)benzoate] |  |  |  | 6.3 ± 5.5 | 130 °C (dec.) | 50 | > 1 | 2.5 | 96 ± 5.7 |  | 
COc1cccc(CON=C(C)c2c(C)cc(=O)n(O)c2O)c1 [Compound 35, 1,6-Dihydroxy-5-(1-(((3-methoxybenzyl)oxy)imino)ethyl)-4-methylpyridin-2(1H)-one] |  |  |  | 1.9 ± 1.2 | 120 to 122 °C (dec.) | 117 | > 1 | 6.19 | 90 ± 14.1 |  | 
COC(=O)c1cc(Cl)c(CON=C(C)c2c(C)cc(=O)n(O)c2O)c(Cl)c1 [Compound 36, Methyl 3,5-dichloro-4-((((1-(1,2-dihydroxy-4-methyl-6-oxo-1,6-dihydropyridin-3-yl)ethylidene)amino)oxy)methyl)benzoate] |  |  |  | 3.1 ± 0.4 | 117 to 119 °C (dec.) | 163 | > 1 | 4.35 | 100 |  | 
CC(=NOC(CNC(=O)c1ccco1)c1cc(F)cc(F)c1)c1c(C)cc(=O)n(O)c1O (centres unmarked) [Compound 37, N-(2-(3,5-Difluorophenyl)-2-(((1-(1,2-dihydroxy-4-methyl-6-oxo-1,6-dihydropyridin-3-yl)ethylidene)amino)oxy)ethyl)furan-2-carboxamide] |  |  |  | 4.7 ± 3 | 118 to 120 °C (dec.) | 175 | > 1 | 4.96 | 100 |  | 
CC(=NOC(c1cc(F)cc(F)c1)c1ccccn1)c1c(C)cc(=O)n(O)c1O (centres unmarked) [Compound 38, 5-(1-(((3,5-Difluorophenyl)(pyridin-2-yl)methoxy)imino)ethyl)-1,6-dihydroxy-4-methylpyridin-2(1H)-one] |  |  |  | 2.3 ± 0.2 | 102 to 104 °C (dec.) | 167 | > 1 | 2.61 | 47.1 ± 21.7 |  | 
CC(=NOCc1ccc(O)cc1)c1c(C)cc(=O)n(O)c1O [Compound 39, 1,6-Dihydroxy-5-(1-(((4-hydroxybenzyl)oxy)imino)ethyl)-4-methylpyridin-2(1H)-one] |  |  |  | 5.2 ± 0.9 | 98 to 100 °C (dec.) | > 200 | > 1 | 5.21 | 91.1 ± 14.3 |  | 
C#CCCCON=C(C)c1c(C)cc(=O)n(O)c1O [Compound 40, 1,6-Dihydroxy-4-methyl-5-(1-((pent-4-yn-1-yloxy)imino)ethyl)pyridin-2(1H)-one] |  |  |  | 2.5 ± 0.6 | 93 to 95 °C (dec.) | > 200 | > 1 | 3.36 | 53.6 ± 31.4 |  | 
C#CCCON=C(C)c1c(C)cc(=O)n(O)c1O [Compound 41, 5-(1-((But-3-yn-1-yloxy)imino)ethyl)-1,6-dihydroxy-4-methylpyridin-2(1H)-one] |  |  |  | 1.2 ± 0.2 | 86 to 89 °C (dec.) | > 200 | > 1 | 2.24 | 57.5 ± 32.4 |  | 
C#CCON=C(C)c1c(C)cc(=O)n(O)c1O [Compound 42, 1,6-Dihydroxy-4-methyl-5-(1-((prop-2-yn-1-yloxy)imino)ethyl)pyridin-2(1H)-one] |  |  |  | 5.4 ± 2.2 | 78 to 80 °C (dec.) | 167 | > 1 | 3.74 | 81.7 ± 18.6 |  | 
COC(=O)c1ccc(CON=C(C)c2c(C)cc(=O)n(O)c2O)c(C#N)c1 [Compound 44, 2′-Cyano-4′-((((1′-(1,2-dihydroxy-4-methyl-6-oxo-1,6-dihydropyridin-5-yl)ethylidene)amino)oxy)methyl)methyl benzoate] |  |  |  | 7.7 ± 1.4 | 115 °C | > 200 | > 1 | 5.42 | 91.9 ± 11.2 |  | 
COC(=O)c1ccc(CON=C(C)c2c(C)cc(=O)n(O)c2O)c(F)c1 [Compound 45, Methyl 4-((((1-(1,2-dihydroxy-4-methyl-6-oxo-1,6-dihydropyridin-3-yl)ethylidene)amino)oxy)methyl)-3-fluorobenzoate] |  |  |  | 3.2 ± 0.4 | 130 °C (dec.) | > 200 | > 1 | 3.54 | 90.2 ± 13.8 |  | 
Nc1cc(Oc2cc(Cl)c(Cl)cc2Cl)nc(N)[n+]1[O-] [Compound 56, 2,6-Diamino-4-(2′,4′,5′-trichloro)-1,6-dihydropyrimidine 1-oxide] |  |  |  | > 100 | 135 °C | 167 | > 1 | 3.85 |  |  | 
Nc1cc(Oc2ccc(Cl)cc2Cl)nc(N)[n+]1[O-] [Compound 57, 2,6-Diamino-4-(2′,4′-dichloro)-1,6-dihydropyrimidine 1-oxide] |  |  |  | > 100 | 160 °C | 100 | > 1 | 2.99 |  |  | 
COc1ccc(COc2cc(N)[n+]([O-])c(N)n2)cc1 [Compound 58, 2,6-Diamino-4-((4-methoxybenzyl)oxy)pyrimidine 1-oxide] |  |  |  | > 100 | > 250 °C | > 200 | > 1 | 2.56 |  |  | 
COC(=O)c1ccc(CO/N=C(\C)C2C(=O)NC(=O)NC2=O)cc1 [Compound 59, Methyl 4′-((((1-(2,4,6-Trioxohexahydropyrimidin-5-yl)ethylidene)amino)oxy)methyl)benzoate] |  | INS | INS |  | > 250 °C |  |  |  |  | lacked any inhibitory activity | INS
